Experiments:
Chemical stability = format: physicochemical
[1] = system: Bacillus subtilis PCI-219; assay: Antibacterial activity relative to (-)-spergualin; format: cell-based; settings: relative to (-)-spergualin (3HCl·½H2O)
Text: The compound was colorless and syrupy, and its melting point could not be measured clearly. […] The antibacterial activity against Bacillus subtilis PCI-219' was 134 % of that of (-)-spergualin (3HCl·½H2O).

[2] = system: Mouse Leukemia L1210 cells; assay: Treatment of mouse Leukemia L1210 (survival of intraperitoneally inoculated mice); format: in vivo; settings: for No. of mice that survived 60 days: groups of 8 mice; for T/C %: observed 60 days
Description: […] Mouse Leukemia L1210 cells were inoculated intraperitoneally to groups of 8 mice each. The test compound dissolved in physiological saline solution was intraperitoneally administered once daily for 9 consecutive days, starting on the day inoculation. The animals were raised and observed for 60 days to determine survival rates (%). The survival rates were calculated from the following equation:
T [average period (in days) of survival for the treatment group] X 100
C [average period (in days) for survival for the non-treatment group]
The average survival period for the control (non-treatment group was 7.6 go 8.9 days.
The test results are shown in Table 1 along with those on (-)-spergualin.
Table 1:Efficacy of (-)-15-deoxyspergualin in the treatment of mose Leukemia L1210

[3] = Carcinostatic action compared with synthetic 15-deoxyspergualin; settings: compared with 15-deoxyspergualin synthesized previously by condensation
[4] = 0.05 mg/kg/day i.p. once daily for 9 days
[5] = 0.10 mg/kg/day i.p. once daily for 9 days
[6] = 0.20 mg/kg/day i.p. once daily for 9 days
[7] = 0.39 mg/kg/day i.p. once daily for 9 days
[8] = 0.78 mg/kg/day i.p. once daily for 9 days
[9] = 1.56 mg/kg/day i.p. once daily for 9 days
[10] = 3.13 mg/kg/day i.p. once daily for 9 days
[11] = 6.25 mg/kg/day i.p. once daily for 9 days
[12] = 12.5 mg/kg/day i.p. once daily for 9 days
[13] = 25 mg/kg/day i.p. once daily for 9 days
[14] = 50 mg/kg/day i.p. once daily for 9 days

## N=C(N)NCCCCCCC(=O)NC(O)C(=O)NCCCCNCCCN (single isomer, unassigned; (-)) [(-)-15-Deoxyspergualin, (-)-15-deoxyspergualin]
Chemical stability; alkalis and acids
  stability to alkalis and acids: very unstable
Chemical stability; free base
  stability in the form of a free base: unstable
[1]
  antibacterial activity against Bacillus subtilis PCI-219, % of that of (-)-spergualin: 134%
[2]; [4]
  No. of mice that survived 60 days: 0/8
  T/C %: 129%
[2]; [5]
  No. of mice that survived 60 days: 0/8
  T/C %: 138%
[2]; [6]
  No. of mice that survived 60 days: 6/8
  T/C %: >664%
[2]; [7]
  No. of mice that survived 60 days: 6/8
  T/C %: >629%
[2]; [8]
  No. of mice that survived 60 days: 8/8
  T/C %: >789%
[2]; [9]
  No. of mice that survived 60 days: 2/8
  T/C %: >493%
[2]; [10]
  No. of mice that survived 60 days: 2/8
  T/C %: >526%
[2]; [11]
  No. of mice that survived 60 days: 0/8
  T/C %: 408%
[3]
  carcinostatic action: markedly better carcinostatic action

## N=C(N)NCCCC[C@H](O)CC(=O)NC(O)C(=O)NCCCCNCCCN (single isomer, unassigned; (-)) [(-)-Spergualin, (-)-spergualin, reference compound]
[2]; [8]
  No. of mice that survived 60 days: 0/8
  T/C %: 107%
[2]; [9]
  No. of mice that survived 60 days: 1/8
  T/C %: >301%
[2]; [10]
  No. of mice that survived 60 days: 3/8
  T/C %: >441%
[2]; [11]
  No. of mice that survived 60 days: 8/8
  T/C %: >732%
[2]; [12]
  No. of mice that survived 60 days: 4/8
  T/C %: >586%
[2]; [13]
  No. of mice that survived 60 days: 0/8
  T/C %: 334%
[2]; [14]
  No. of mice that survived 60 days: 0/8
  T/C %: 295%

— EP0094632A1, “(-)-15-Deoxyspergualin, a process for the preparation of the same, and a pharmaceutical composition containing the same” (priority 1982, dated 1983)
